# From patent US20230310416A1, “SUSPENSION OF TRIAZOLE ANTIFUNGAL DRUG FOR ATOMIZER” (SHANGHAI FRONTIER HEALTH PHARMACEUTICAL TECHNOLOGY CO., LTD, priority 2020, published 2023)
# Test system: bleomycin-induced idiopathic pulmonary fibrosis in mice
# Assay: Mouse model of pulmonary fibrosis induced by bleomycin, inhalation versus oral administration
# Type: in vivo, ICR mice
# Conditions: once a day for 22 days
# Experimental: In order to investigate the efficacy of itraconazole suspension of the present invention by inhalation administration, a mouse model of pulmonary fibrosis induced by bleomycin 2 mg/kg/mouse was established and compared with that by oral administration.
# Test animals: ICR mice: SPF grade, body weight 22-24 g, male.
# Test drugs: itraconazole suspension prepared in Example 3
# Model establishment: 2 mg/kg of bleomycin hydrochloride for injection was sprayed into the respiratory tract of each mouse to induce pulmonary fibrosis, 4 weeks later, a mouse pulmonary fibrosis model was established.
# Animal grouping: Mice were randomly divided into 4 groups, namely a blank control group, a model group, an itraconazole inhalation group, in which 2.5 mg/kg was inhaled for 3 minutes (2.5 mg/kg Inhalation group) and an itraconazole oral group, in which 15 mg/kg was orally administrated(15 mg/kg Oral group). The drugs were administered once a day for 22 consecutive days from the fifth day after modeling.
# Detecting indexes: the mice were sacrificed after administration, the trachea was separated, the left lung was ligated, the bronchoalveolar lavage (BAL) was performed, the bronchoalveolar lavage fluid (BALF) was taken for white cell count and classification count, after the lung tissue was fixed with formalin, paraffin embedding, sectioning, H & E staining and Masson’s staining were carried out. The contents of transforming growth factor (TGF- β 1), mouse type I collagen (Col I) and hydroxyproline in lung tissue in supernatant of the BALF were detected by a kit.
smiles,measurement,setting,value
CCC(C)n1ncn(-c2ccc(N3CCN(c4ccc(OCC5COC(Cn6cncn6)(c6ccc(Cl)cc6Cl)O5)cc4)CC3)cc2)c1=O (stereo not drawn) [itraconazole],Collagen deposition in lung tissue,2.5 mg/kg inhalation,62759.9±17865.8
same,Content of Col I in BALF,2.5 mg/kg inhalation,1.64 ± 0.64 ng/mL
same,Content of TGF-β1 in BALF,2.5 mg/kg inhalation,32.13 ± 25.97 pg/mL
same,Content of hydroxyproline in lung tissue,2.5 mg/kg inhalation,526.7 ±66.0 µg/g tissue
same,Number of neutrophils in BALF,2.5 mg/kg inhalation,12.08±5.85 1 × 10^4 cell/ml
same,Total number of white blood cells in BALF,2.5 mg/kg inhalation,26.13 ±5.93 1 × 10^4 cell/ml
same,Collagen deposition in lung tissue,15 mg/kg oral,166628.8±35819.8
same,Content of Col I in BALF,15 mg/kg oral,1.91 ± 0.86 ng/mL
same,Content of TGF-β1 in BALF,15 mg/kg oral,24.79 ± 12.72 pg/mL
same,Content of hydroxyproline in lung tissue,15 mg/kg oral,583.8 ±96.6 µg/g tissue
same,Number of neutrophils in BALF,15 mg/kg oral,13.71 ±7.58 1 × 10^4 cell/ml
same,Total number of white blood cells in BALF,15 mg/kg oral,29.13±10.99 1 × 10^4 cell/ml
